“And” between values parts separate entries of the source, which are not always exact repeats. Equal values may be shown once.
Tests used:
[1] = PAMPA parallel artificial membrane permeability assay; conditions: for recovery at 16 h, 10 µM / Papp at 16 h, 10 μM: PAMPA
Experimental: Passive diffusion was estimated using the PAMPA method. […] The donor plate was a MultiScreen-IP Plate with 0.45 μm hydrophobe Immobilon-P Membrane (Millipore, #MAIPNTR10) and the acceptor plate was a MultiScreen 96-well Transport Receiver Plate (Millipore, #MATRNPS50). […] Acceptor pH was 7.4. All samples were analyzed against an external, matrix-matched, standard curve by LC-MS/MS with a Waters (Elstree, Herts. UK) Acquity H-class LC system coupled to a Waters TQ-S mass spectrometer. Permeability values (cm/s) were calculated using the following equation: [drawing 2] and VD = volume of donor; VA = volume of acceptor; area = surface area of the membrane · porosity.

HEK293a SHH+ cells = experiment: MTS assay, cytotoxicity (72 h); type: cell-based; conditions: for decrease in cell viability / cell survival: 12.5 μM
Experimental: (§1) The survival of HEK293a SHH^+ cells is independent of HH signaling,[35] therefore, the cytotoxicity of analogues was tested using the MTS assay to investigate off-target toxicity. In this assay, HEK293a SHH^+ cells were treated with DMSO vehicle or varying concentrations of analogues for 72 h. Subsequently, a mixture of 1-methoxy phenazine methosulfate (PMS) and [3-(4,5-dimethylthiazol-2-yl)-5-(3-carboxymethoxyphenyl)-2-(4-sulfophenyl)-2H-tetrazolium] (MTS) was added to enable quantification of cell number via colorimetric analysis. […] Compounds 3, 17, 19, 32, 34, 38, and 45, which all contain a 2-((2-methylbutyl)amino)acetyl, were toxic to HEK293a SHH^+ cells, as were ureas 26, 40, and 41.
(§2) HEK293a SHH^+ cells were plated at 5000 cells/well in a 96-well plate (Nunc) using a volume of 50 μL/well and cultured for 24 h as described. Cells were treated with 100 μL/well of either DMSO vehicle, Puromycin (2 μg/mL), or stated analogues (0.14–100 μM final) in DMEM supplemented with 10% FBS. After 72 h, 20 μL/well of a mixture of 1-methoxy phenazine methosulfate (PMS) and [3-(4,5-dimethylthiazol-2-yl)-5-(3-carboxymethoxyphenyl)-2-(4-sulfophenyl)-2H-tetrazolium] (MTS) at a ratio of MTS/PMS = 2/0.92 mg/mL in PBS was added and the plates were incubated for 3 h at 37 °C. Subsequently, the absorption at 490 nm was recorded using an EnVision Xcite 2104 (PerkinElmer), and the response was normalized to vehicle control and Puromycin treated samples. Dose response curves were fitted to a “sigmoidal dose response (variable slope)” model using GraphPad Prism 5 (GraphPad Software, Inc.).

[2] = MTS assay, cytotoxicity (72 h); type: cell-based; conditions: human, HEK293a SHH+ cells, 72 h; for CC50 at 72 h: read-out: MTS Assay (HEK293a SHH+) CC50 (CI95)
Experimental: as §1, §2

purified HHAT = molecular target: T1, purified HHAT (Homo sapiens, UniProt Q5VTY9); experiment: Acyl-cLIP assay, inhibition of purified HHAT; type: biochemical; conditions: for IC50: purified HHAT, read-out: Acyl-cLIP Assay IC50 (CI95); for LLEAcyl-cLIP: from Acyl-cLIP IC50 and clogDpH7.4
T1 construct: made in house
Experimental: The inhibitory potency of all 50 compounds against purified HHAT was quantified using the acylation-coupled lipophilic induction of polarization (acyl-cLIP) assay recently developed in our lab, a universally applicable assay for high-throughput analysis of protein–lipid transferases and hydrolases.[31],[40] In brief, in this assay a fluorescently labeled peptide based on the N-terminal sequence of SHH is incubated with N-dodecyl β-D-maltoside (DDM) solubilized purified HHAT, palmitoyl-CoA, and HHAT inhibitors. Binding of the lipidated peptide product to the DDM micelle results in decreased tumbling rate and an increase in polarization of fluorescence emission, enabling facile quantification of HHAT activity. Initially, % HHAT inhibition was determined at 50 μM and 25 μM for all analogues. […] HHAT is a 12-pass TM protein,[14] and we considered whether lipophilicity might bias inhibition; pIC50 values were compared to calculated log D, which indicated no significant correlation (SI, Table S1 and Figure S2). We concluded that lipophilicity is not a general driver of HHAT inhibitory potency.
The acyl-cLIP assay has been described previously.[40] Briefly, SHH-FAM peptide was diluted in buffer A (100 mM MES, 20 mM NaCl, 1 mM DTT, 1 mM TCEP, 0.1% BSA, pH 6.5) to a concentration of 2 μM. Palmitoyl-CoA (Sigma-Aldrich) was diluted in buffer A to 7.5 μM and recombinant HHAT (obtained by following the published protocol[14]) in buffer B (20 mM HEPES, 350 mM NaCl, 1% DDM, 5% glycerol, pH 7.3) diluted to 44 μg/mL. 1.5 μL of a 50 mM inhibitor DMSO stock was diluted with 18.5 μL of DMSO and further serial diluted (1:1). For each condition, 6 μL of the HHAT working stock and […] of the SHH-peptide working stock were mixed with 3 μL of the corresponding inhibitor concentration or DMSO vehicle. Twelve μL/well of this mixture was split into four wells of a black 384 well plate. To start the reaction, 8 μL of the Pal-CoA working stock were added to each well and fluorescence anisotropy and the total fluorescence recorded on an EnVision Xcite 2104 (PerkinElmer) over 30 min (emission filter 1 = FITC FP P-pol 535; emission filter 2 = FITC S-pol 535; excitation filter: FITC FP 480; measurement height = 6.5 mm; detector gain = 0; high concentration gain). Initial rate constants were determined by linear regression and normalized to DMSO control and samples with buffer B instead of HHAT. IC50 values were extracted from the corresponding dose response curves using a “sigmoidal dose response (variable slope)” model in GraphPad Prism 5 (GraphPad Software, Inc.).

[3] = pH 5, PAMPA Papp pH 5, donor pH 5, 10 µM
[4] = pH 5, PAMPA Permeability Class pH 5, donor pH 5, 10 µM

T1 sequence (Q5VTY9 whole entry): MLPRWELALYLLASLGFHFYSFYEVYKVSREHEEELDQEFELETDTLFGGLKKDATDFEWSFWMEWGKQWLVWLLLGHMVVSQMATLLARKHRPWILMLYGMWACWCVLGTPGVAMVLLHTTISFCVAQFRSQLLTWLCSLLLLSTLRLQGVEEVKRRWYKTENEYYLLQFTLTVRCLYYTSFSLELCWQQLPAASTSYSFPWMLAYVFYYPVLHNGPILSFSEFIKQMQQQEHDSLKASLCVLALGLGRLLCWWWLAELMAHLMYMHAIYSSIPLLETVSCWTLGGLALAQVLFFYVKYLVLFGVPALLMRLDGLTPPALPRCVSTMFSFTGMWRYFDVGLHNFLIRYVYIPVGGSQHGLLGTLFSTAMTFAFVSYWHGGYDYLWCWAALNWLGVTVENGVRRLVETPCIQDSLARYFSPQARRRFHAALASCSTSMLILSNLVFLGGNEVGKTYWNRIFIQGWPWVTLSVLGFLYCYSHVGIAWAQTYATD

## CC(C)(C)NCC(O)COc1cccc2c1CC(O)C(O)C2 (stereo not shown) [Nadolol, reference compound]
[1]; pH 5
  recovery at 16 h, 10 µM: 97%
[1]; [3]
  Papp at 16 h, 10 μM: < 0.4 ×10⁻⁶ cm/s
[1]; [4]
  Papp at 16 h, 10 μM: < 5 ×10⁻⁶ cm/s
[1]; pH 6.5, PAMPA Papp pH 6.5, donor pH 6.5, 10 µM
  Papp at 16 h, 10 μM: < 0.4 ×10⁻⁶ cm/s
[1]; pH 6.5, PAMPA Permeability Class pH 6.5, donor pH 6.5, 10 µM
  Papp at 16 h, 10 μM: < 5 ×10⁻⁶ cm/s
[1]; pH 7.4
  recovery at 16 h, 10 µM: 135%
[1]; pH 7.4, PAMPA Papp pH 7.4, donor pH 7.4, 10 µM
  Papp at 16 h, 10 μM: < 0.3 ×10⁻⁶ cm/s
[1]; pH 7.4, PAMPA Permeability Class pH 7.4, donor pH 7.4, 10 µM
  Papp at 16 h, 10 μM: < 5 ×10⁻⁶ cm/s

## CC(C)CCNC(=O)N1CCc2ccccc2C1c1ccccc1 (stereo not shown) [Compound 40, N-Isopentyl-1-phenyl-3,4-dihydroisoquinoline-2(1H)-carboxamide]
HEK293a SHH+ cells
  toxicity to HEK293a SHH+ cells: toxic
[2]
  CC50 at 72 h: 1.8 µM
  viability at 72 h, 12.5 µM: 14 ± 4%
  viability at 72 h, 25 µM: 12 ± 3%
Purified HHAT
  HHAT inhibition in the acyl-cLIP assay: inactivity
  inhibition at 25 µM: 0%
  inhibition at 50 µM: 4 ± 5%
  IC50: > 25 µM

## CC(=O)N1CCc2sccc2C1c1ccccn1 (stereo not shown) [Compound 18]
HEK293a SHH+ cells
  decrease in cell viability / cell survival: < 30%
[2]
  CC50 at 72 h: > 100 µM
  viability at 72 h, 12.5 µM: 97 ± 2%
  viability at 72 h, 25 µM: 98 ± 2%
Purified HHAT
  inhibition at 25 µM: 49 ± 1%
  inhibition at 50 µM: 72 ± 1%
  LLEAcyl-cLIP: 2.73
  IC50: 24 µM and 23.7 µM

## CCC(C)CNCC(=O)N1CCc2sccc2C1COc1cccc(C)c1 (stereo not shown) [Compound 3]
HEK293a SHH+ cells
  toxicity to HEK293a SHH+ cells: toxic
  decrease in cell viability / cell survival: 69%
[2]
  CC50 at 72 h: 8.4 µM
  viability at 72 h, 12.5 µM: 31 ± 2%
  viability at 72 h, 25 µM: 12 ± 3%
Purified HHAT
  inhibition at 25 µM: 52 ± 3%
  inhibition at 50 µM: 63 ± 4%
  LLEAcyl-cLIP: 3.16
  IC50: 1.44 µM
Purified HHAT; meta-methyl on 4-position aromatic ring
  fold more potent than analogues 19, 32, and 34: 2–5 fold

## CC(=O)N1CCc2sccc2C1C1CCCCC1 (stereo not shown) [Compound 35]
[2]
  viability at 72 h, 12.5 µM: 54 ± 2%
  viability at 72 h, 25 µM: 59 ± 3%
Purified HHAT
  HHAT inhibition in the acyl-cLIP assay: loss of activity
  inhibition at 25 µM: 6 ± 7%
  inhibition at 50 µM: 8 ± 7%
  IC50: > 25 µM

## O=c1ccc2ccccc2o1 [Coumarin, reference compound]
[1]; pH 5
  recovery at 16 h, 10 µM: 99%
[1]; [3]
  Papp at 16 h, 10 μM: 124 ×10⁻⁶ cm/s
[1]; [4]
  Papp at 16 h, 10 μM: > 20 ×10⁻⁶ cm/s
[1]; pH 6.5
  recovery at 16 h, 10 µM: 99%
[1]; pH 7.4
  recovery at 16 h, 10 µM: 114%
[1]; donor pH 6.5, 10 µM
  PAMPA Papp pH 6.5: >eqm
  PAMPA Permeability Class pH 6.5: >eqm
[1]; donor pH 7.4, 10 µM
  PAMPA Papp pH 7.4: >eqm
  PAMPA Permeability Class pH 7.4: >eqm

## CC(C)CNCC(=O)N1CCc2ccccc2C1c1ccccc1 (stereo in doubt) [Compound 42, (S)-2-((2-Methylpropyl)amino)-1-(1-phenyl-3,4-dihydroisoquinolin-2(1H)-yl)ethan-1-one]
[2]
  CC50 at 72 h: > 100 µM
  viability at 72 h, 12.5 µM: 92 ± 4%
  viability at 72 h, 25 µM: 91 ± 2%
Purified HHAT
  HHAT inhibition in the acyl-cLIP assay: no inhibitory activity
  inhibition at 25 µM: 6 ± 2%
  inhibition at 50 µM: 7 ± 2%
  IC50: > 100 µM

## Cc1cccc(C2NCCc3sccc32)n1 (stereo not shown) [Compound 20]
[2]
  viability at 72 h, 12.5 µM: 82 ± 2%
  viability at 72 h, 25 µM: 68 ± 3%
Purified HHAT
  HHAT inhibition in the acyl-cLIP assay: inactive
  inhibition at 25 µM: 9 ± 10%
  inhibition at 50 µM: -2 ± 19%
  IC50: > 25 µM

## CC(C)[C@H](N)C(=O)N1CCc2sccc2C1c1ccccc1 (stereo partly drawn) [Compound 8, (2S)-2-Amino-3-methyl-1-(4-phenyl-6,7-dihydrothieno[3,2-c]pyridin-5(4H)-yl)butan-1-one]
[2]
  viability at 72 h, 12.5 µM: 92 ± 3%
  viability at 72 h, 25 µM: 92 ± 3%
Purified HHAT
  inhibition at 25 µM: 9 ± 4%
  inhibition at 50 µM: 7 ± 11%
  IC50: > 25 µM

## CCC(C)CNCC(=O)N1CCc2sccc2C1c1ccccc1O (stereo not shown) [Compound 34, 1-(4-(2-Hydroxyphenyl)-6,7-dihydrothieno[3,2-c]pyridin-5(4H)-yl)-2-((2-methylbutyl)amino)ethan-1-one]
HEK293a SHH+ cells
  toxicity to HEK293a SHH+ cells: toxic
[2]
  CC50 at 72 h: 6.1 µM
  viability at 72 h, 12.5 µM: 24 ± 1%
  viability at 72 h, 25 µM: 20 ± 1%
Purified HHAT
  inhibition at 25 µM: 92 ± 1%
  inhibition at 50 µM: 93 ± 1%
  LLEAcyl-cLIP: 3.35

## c1ccc(C2NCCc3sccc32)cc1 (stereo not shown) [Compound 4]
[2]
  viability at 72 h, 12.5 µM: 90 ± 2%
  viability at 72 h, 25 µM: 84 ± 3%
Purified HHAT
  HHAT inhibition in the acyl-cLIP assay: inactive
  inhibition at 25 µM: 5 ± 3%
  inhibition at 50 µM: -16 ± 16%
  IC50: > 25 µM

## C=CCN1CCc2sccc2C1c1cccc(C)c1 (stereo not shown) [Compound 15]
[2]
  viability at 72 h, 12.5 µM: 81 ± 2%
  viability at 72 h, 25 µM: 74 ± 2%
Purified HHAT
  HHAT inhibition in the acyl-cLIP assay: no inhibitory effect
  inhibition at 25 µM: -1 ± 5%
  inhibition at 50 µM: -5 ± 9%
  IC50: > 25 µM

## Cc1cccc(C2NCCc3sccc32)c1 (stereo not shown) [Compound 14]
[2]
  viability at 72 h, 12.5 µM: 72 ± 3%
  viability at 72 h, 25 µM: 74 ± 3%
Purified HHAT
  HHAT inhibition in the acyl-cLIP assay: inactive
  inhibition at 25 µM: 5 ± 3%
  inhibition at 50 µM: -16 ± 16%
  IC50: > 25 µM

## COCCNC(=O)N1CCc2ccccc2C1c1ccccc1 (stereo not shown) [Compound 41, N-(2-Methoxyethyl)-1-phenyl-3,4-dihydroisoquinoline-2(1H)-carboxamide]
HEK293a SHH+ cells
  toxicity to HEK293a SHH+ cells: toxic
[2]
  CC50 at 72 h: 20.2 µM
  viability at 72 h, 12.5 µM: 83 ± 3%
  viability at 72 h, 25 µM: 53 ± 2%
Purified HHAT
  HHAT inhibition in the acyl-cLIP assay: inactivity
  inhibition at 25 µM: 0%
  inhibition at 50 µM: 27 ± 3%
  IC50: > 25 µM

Reference: paper PMC10823475, “Design, Synthesis, and Evaluation of Inhibitors of Hedgehog Acyltransferase” (Journal of Medicinal Chemistry, 2024)
